Measurements from ChEMBL document CHEMBL5647696, “Are all cyclin-dependent kinases 4/6 inhibitors created equal?” (NPJ Breast Cancer, 2019).

Tests used:
[1] = Volume of distribution in human; type: ADME
[2] = Drug excretion in human feces; type: ADME, tissue-based; settings: faeces, read-out: Drug excretion
[3] = Drug excretion in human urine; type: ADME, tissue-based; settings: read-out: Drug excretion
[4] = Bioavailability in human; type: ADME, organism-based; settings: in vivo
[5] = Time to reach peak level in human; type: ADME
[6] = Protein binding in human plasma; type: ADME, cell-free; settings: read-out: PPB (converted)
[7] = Elimination half life in human; type: ADME; settings: read-out: beta t1/2 (converted)

Structure (SMILES) | Vd [1] | dose excreted [2] | dose excreted [3] | bioavailability [4] | Tmax [5] | fraction unbound [6] | half-life [7]
CCN1CCN(Cc2ccc(Nc3ncc(F)c(-c4cc(F)c5nc(C)n(C(C)C)c5c4)n3)nc2)CC1 [ABEMACICLIB] | 690 L | 81% | 3% | 45% | 8 h | 0.07 | 
CC(=O)c1c(C)c2cnc(Nc3ccc(N4CCNCC4)cn3)nc2n(C2CCCC2)c1=O [PALBOCICLIB] | 2580 L |  |  |  | 6 h |  | 29 h
CN(C)C(=O)c1cc2cnc(Nc3ccc(N4CCNCC4)cn3)nc2n1C1CCCC1 [RIBOCICLIB] | 1090 L | 69% | 23% |  | 1 h |  | 30 h
